Patent publication US12655101B2, “Small molecules with antibacterial activity” (NEW MEXICO TECH UNIVERSITY RESEARCH PARK CORPORATION, priority 2021, dated 2026)
Converted amounts (≈) assume the structure as drawn. Read-outs that look alike come from different tables or passages of the source.

What was measured:
[1] = test system: A. baumannii ATCC BAA-1797; assay: MIC on A. baumannii ATCC BAA-1797; format: cell-based
Protocol: A. baumannii: A. baumannii ATCC BAA-1797 was grown from a glycerol stock by placing a small volume of cells onto a MHA plate. The MHA plate was incubated overnight at 37° C. A single colony was used to inoculate MHB to obtain a bacterial broth suspension. The MHB broth suspension was grown at 37° C. on a rotary shaking incubator (100 rpm) for 12 hours. The bacterial cell concentration was adjusted to ˜5×10^5 CFU/mL in MHB or MHB+10%, 20% or 40% FBS using OD at 595 nm. 500 μL aliquots of the adjusted bacterial cell suspension were placed into borosilicate glass tubes. The cell suspensions were treated with a compound of interest, and the treatments were serially diluted two-fold. The culture tubes were incubated for 18 hours at 37° C. Efficacy was either assessed visually or by adding 10% v/v MTT (5 mg/mL stock) after the 18 hour incubation period. The cell suspensions were subsequently incubated for 10 minutes to allow the MTT reagent to carry out the colorimetric reaction. The OD was read at 595 nm.

[2] = test system: MRSA ATCC BAA-44; assay: MIC on MRSA ATCC BAA-44; format: cell-based, S. aureus; details: Staphylococcus aureus
Protocol: MRSA BAA-44: MRSA ATCC BAA-44 was grown from a glycerol stock by placing a small volume of cells onto a Mueller-Hinton agar plate (MHA). The MHA plate was incubated overnight at 37° C. A single colony was used to inoculate Mueller-Hinton broth (MHB) to obtain a bacterial broth suspension. The MHB broth suspension was grown at 37° C. on a rotary shaking incubator (100 rpm) for 12 hours. The bacterial cell concentration was adjusted to ˜5×10^5 colony forming units per milliliter (CFU/mL) in MHB−/+10, 20, or 40% FBS using optical density (OD) at 595 nm. 500 μL aliquots of the adjusted bacterial cell suspension were placed into borosilicate glass tubes. The cell suspensions were treated with 100 μM compound of interest and serially diluted two-fold. The culture tubes were incubated for 18 hours at 37° C. Efficacy was either assessed visually or by adding 10% v/v MTT (5 mg/mL stock) after the 18 hour incubation period, where the cell suspensions were subsequently incubated for 10 minutes to allow the MTT reagent to carry out the colorimetric reaction.

[3] = Acinetobacter baumannii, ATCC 1797 / ATCC BAA-1797, 0% FBS, read-out: MIC (μM) in MDR A. baumannii ATCC 1797 0% FBS
[4] = 10% FBS, read-out: MIC (μM) in MRSA BAA-44 10% FBS
[5] = Acinetobacter baumannii, ATCC 1797 / ATCC BAA-1797, 10% FBS, read-out: MIC (μM) in MDR A. baumannii ATCC 1797 10% FBS
[6] = Acinetobacter baumannii, ATCC 1797 / ATCC BAA-1797, read-out: MIC (μM) in MDR A. baumannii ATCC 1797 40% FBS, 40% FBS
[7] = no serum (note in the cell), read-out: MIC (μM) in MRSA BAA-44
[8] = Acinetobacter baumannii, ATCCBAA1797, 18 h, read-out: MIC in the presence of 40% FBS, A. baumannii ATCC BAA-1797, 40% FBS
[9] = Acinetobacter baumannii, ATCCBAA1797, A. baumannii ATCC BAA-1797, absence of serum, read-out: MIC in the absence of serum
[10] = in FBS (note in the cell, percentage not given), read-out: MIC (μM) in MRSA BAA-44

Brc1ccc(/N=N/c2c[nH]c3cccc(Nn4nnc5ccccc54)c23)cc1 [Compound 1, (E)-N-(3-((4-bromophenyl)diazenyl)-1H-indol-4-yl)-1H-benzo[d][1,2,3]triazol-1-amine]
MIC [1, 3]: 50 µM (≈ 21.6 µg/mL)

Cn1cc(/N=N/c2ccc(Br)cc2)c2c([N+](C)(C)C)cccc21 [Compound 2, (E)-3-((4-bromophenyl)diazenyl)-N,N,N,1-tetramethyl-1H-indol-4-aminium iodide]
MIC [1, 3]: > 100 µM | MIC [2, 4]: > 100 µM

O=[N+]([O-])c1ccc2[nH]cc(/N=N/c3ccc(Br)cc3)c2c1 [Compound 3, (E)-3-((4-bromophenyl)diazenyl)-5-nitro-1H-indole]
MIC [1, 3]: > 100 µM | MIC [1, 5]: > 100 µM

NC(=O)CC(N)C(=O)Nc1cccc2[nH]cc(/N=N/c3ccc(Br)cc3)c12 (centres unmarked) [Compound 5, (E)-2-amino-N^1-(3-((4-bromophenyl)diazenyl)-1H-indol-4-yl)succinamide]
MIC [1, 3]: > 100 µM | MIC [1, 5]: > 100 µM

N=C(N)NCCC(N)C(=O)Nc1cccc2[nH]cc(/N=N/c3ccc(Br)cc3)c12 (centres unmarked) [Compound 6, (E)-2-amino-N-(3-((4-bromophenyl)diazenyl)-1H-indol-4-yl)-4-guanidinobutanamide]
MIC [1, 3]: 25 µM (≈ 11.4 µg/mL) | MIC [1, 5]: > 100 µM | MIC [1, 6]: 100 µM (≈ 45.7 µg/mL) | MIC [2, 4]: 25 µM (≈ 11.4 µg/mL)

Clc1ccc(N/N=C/c2c[nH]c3ccccc23)cc1 [Compound 7, (E)-3-((2-(4-chlorophenyl)hydrazineylidene)methyl)-1H-indole]
MIC ([1]; Acinetobacter baumannii, ATCC 1797 / ATCC BAA-1797, read-out: MIC (μM) in MDR A. baumannii ATCC 1797 0% FBS): 5 µM (≈ 1.35 µg/mL) | MIC ([1]; Acinetobacter baumannii, ATCC 1797 / ATCC BAA-1797, read-out: MIC (μM) in MDR A. baumannii ATCC 1797 10% FBS): 25 µM (≈ 6.74 µg/mL) | MIC ([1]; Acinetobacter baumannii, ATCC 1797 / ATCC BAA-1797, read-out: MIC (μM) in MDR A. baumannii ATCC 1797 40% FBS): 50 µM (≈ 13.5 µg/mL) | MIC ([2]; read-out: MIC (μM) in MRSA BAA-44 10% FBS): 100 µM (≈ 27 µg/mL)

C(=N\Nc1ccccc1)/c1c[nH]c2ccccc12 [Compound 8, (E)-3-((2-phenylhydrazineylidene)methyl)-1H-indole]
MIC [1, 3]: 40 µM (≈ 9.41 µg/mL) | MIC [1, 5]: > 100 µM | MIC [1, 6]: 50 µM (≈ 11.8 µg/mL) | MIC [2, 4]: > 100 µM

O=[N+]([O-])c1ccc(N/N=C/c2c[nH]c3ccccc23)cc1 [Compound 9, (E)-3-((2-(4-nitrophenyl)hydrazineylidene)methyl)-1H-indole]
MIC [1, 3]: > 100 µM

O=C(O)c1ccc(N/N=C/c2c[nH]c3ccccc23)cc1 [Compound 10, (E)-4-(2-((1H-indol-3-yl)methylene)hydrazineyl) benzoic acid]
MIC [1, 3]: > 100 µM | MIC [2, 7]: 100 µM (≈ 27.9 µg/mL)

N#CCC(=O)N/N=C/c1c[nH]c2ccccc12 [Compound 11, (E)-N′-((1H-indol-3-yl)methylene)-2-cyanoacetohydrazide]
MIC [1, 3]: > 100 µM | MIC [1, 5]: > 100 µM | MIC [1, 6]: > 100 µM | MIC [2, 4]: > 100 µM

Clc1ccccc1N/N=C/c1c[nH]c2ccccc12 [Compound 12, (E)-3-((2-(2-chlorophenyl)hydrazineylidene)methyl)-1H-indole]
MIC [1, 3]: 12.5 µM (≈ 3.37 µg/mL) | MIC [1, 5]: > 100 µM | MIC [1, 6]: > 100 µM | MIC [2, 7]: 25 µM (≈ 6.74 µg/mL)

Oc1cccc2[nH]cc(/C=N/Nc3ccccc3)c12 [Compound 13, (E)-3-((2-phenylhydrazineylidene)methyl)-1H-indol-4-ol]
MIC [1, 3]: 5 µM (≈ 1.26 µg/mL) | MIC [1, 5]: 100 µM (≈ 25.1 µg/mL) | MIC [1, 6]: > 100 µM | MIC [2, 4]: 100 µM (≈ 25.1 µg/mL)

N=C(N)NCCC[C@H](N)C(=O)Oc1cccc2[nH]cc(/C=N/Nc3ccc(Cl)cc3)c12 [Compound 16, (E)-3-((2-(4-chlorophenyl)hydrazineylidene)methyl)-1H-indol-4-yl argininate]
MIC [1, 3]: 3 µM (≈ 1.33 µg/mL) | MIC [1, 5]: > 100 µM | MIC [1, 6]: > 100 µM | MIC [2, 4]: > 100 µM

CC(C)(C)OC(=O)N[C@@H](CCCNC(=N)N)C(=O)Oc1cccc2[nH]cc(/C=N/Nc3ccc(Cl)cc3)c12 [Compound 17, (E)-3-((2-(4-chlorophenyl)hydrazineylidene)methyl)-1H-indol-4-yl (tert-butoxycarbonyl) argininate]
MIC [1, 3]: > 100 µM | MIC [1, 5]: > 100 µM | MIC [1, 6]: > 100 µM | MIC [2, 4]: > 100 µM

CC(C)(C)OC(=O)Nc1cccc2[nH]cc(/C=N/Nc3ccc(Cl)cc3)c12 [Compound 18]
MIC [1, 3]: 3 µM (≈ 1.15 µg/mL) | MIC [1, 6]: > 100 µM | MIC [1, 8]: > 100 µM | MIC [1, 9]: 3 µM (≈ 1.15 µg/mL) | MIC ([2]; MRSA ATCC BAA-44, serum not stated, read-out: MIC): 12.5 µM (≈ 4.81 µg/mL) | MIC [2, 7]: 12.5 µM (≈ 4.81 µg/mL)

C(=N\Nc1ncccn1)/c1c[nH]c2ccccc12 [Compound 19, (E)-3-((2-(pyrimidin-2-yl)hydrazineylidene)methyl)-1H-indole]
MIC [1, 3]: > 100 µM | MIC [1, 6]: > 100 µM | MIC [2, 4]: > 100 µM

Oc1cccc2[nH]cc(/C=N/Nc3ccc(Br)cc3)c12 [Compound 20, (E)-3-((2-(4-bromophenyl)hydrazineylidene)methyl)-1H-indol-4-ol]
MIC [1, 3]: 25 µM (≈ 8.25 µg/mL) | MIC [1, 6]: > 100 µM | MIC [2, 10]: > 100 µM | MIC [2, 7]: 25 µM (≈ 8.25 µg/mL)

Oc1cccc2[nH]cc(/C=N/Nc3ccc(F)cc3)c12 [Compound 21, (E)-3-((2-(4-fluorophenyl)hydrazineylidene)methyl)-1H-indol-4-ol]
MIC [1, 3]: 25 µM (≈ 6.73 µg/mL) | MIC [1, 6]: > 100 µM | MIC [2, 10]: > 100 µM | MIC [2, 7]: 25 µM (≈ 6.73 µg/mL)

CCCCCC(=O)Oc1cccc2[nH]cc(/C=N/Nc3ccc(Br)cc3)c12 [Compound 22, (E)-3-((2-(4-bromophenyl)hydrazineylidene)methyl)-1H-indol-4-yl hexanoate]
MIC [1, 3]: 25 µM (≈ 10.7 µg/mL) | MIC [1, 6]: > 100 µM | MIC [2, 10]: > 100 µM | MIC [2, 7]: 25 µM (≈ 10.7 µg/mL)

Brc1ccc(N/N=C/c2c[nH]c3ccc(Br)cc23)cc1 [Compound 23, (E)-1-((5-bromo-1H-indol-3-yl)methylene)-2-(4-bromophenyl)hydrazin-1-ium chloride]
MIC [1, 3]: 12.5 µM | MIC ([1]; Acinetobacter baumannii, ATCC 1797 / ATCC BAA-1797, in human serum (note in the cell of the 40% FBS column), read-out: MIC (μM) in MDR A. baumannii ATCC 1797): < 100 µM

CC(=O)n1cc(/C=N/Nc2ccc(Cl)cc2)c2ccccc21 [Compound 24, (E)-1-(3-((2-(4-chlorophenyl)hydrazineylidene)methyl)-1H-indol-1-yl)ethan-1-one]
MIC [1, 3]: < 100 µM | MIC [1, 6]: > 100 µM

N#Cc1ccc(N/N=C/c2c[nH]c3cccc(OCc4ccccc4)c23)cc1 [Compound 28]
MIC [1, 3]: 25 µM (≈ 9.16 µg/mL) | MIC [1, 6]: 100 µM (≈ 36.6 µg/mL)

O=S(=O)(N/N=C/c1c[nH]c2cccc(OCc3ccccc3)c12)c1ccccc1 [Compound 29, (E)-N′-((4-(benzloxy)-1H-indol-3-yl)methylene)benzenesulfonohydrazide]
MIC [1, 3]: > 100 µM | MIC [1, 6]: > 100 µM

COc1ccc(N/N=C/c2c[nH]c3cccc(OCc4ccccc4)c23)cc1 [Compound 30, (E)-4-(benzyloxy)-3-((2-(4-methoxyphenyl) hydrazineylidene)methyl)-1H-indole]
MIC [1, 3]: > 100 µM | MIC [1, 5]: > 100 µM | MIC [1, 6]: > 100 µM | MIC [1, 8]: 100 µM | MIC [1, 9]: 20 µM (≈ 7.43 µg/mL) | MIC [2, 4]: > 100 µM

Fc1ccc(N/N=C/c2c[nH]c3cccc(OCc4ccccc4)c23)cc1 [Compound 31, (E)-4-(benzyloxy)-3-((2-(4-fluorophenyl)hydrazineylidene)methyl)-1H-indole]
MIC ([1]; 0% FBS, read-out: MIC (μM) in MDR A. baumannii ATCC 1797 0% FBS): 12.5 µM (≈ 4.49 µg/mL) | MIC [2, 4]: ~100 µM (≈ 35.9 µg/mL)

Clc1ccc(N/N=C/c2c[nH]c3cccc(OCc4ccccc4)c23)c(Cl)c1 [Compound 32, (E)-4-(benzyloxy)-3-((2-(2,4-dichlorophenyl)hydrazineylidene)methyl)-1H-indole]
MIC [1, 3]: > 100 µM

Nc1cccc2c(S(=O)(=O)N/N=C/c3c[nH]c4cccc(OCc5ccccc5)c34)cccc12 [Compound 33, (E)-5-amino-N′-((4-(benzyloxy)-1H-indol-3-yl)methylene)naphthalene-1-sulfonohydrazide]
MIC [1, 3]: > 100 µM | MIC [1, 6]: > 100 µM | MIC [2, 7]: > 100 µM
